Test results published in patent publication US20020132236A1, “Specific inhibitors of ribosome recycling factors (RRF)” (priority 2000, published 2002).
Entries after “also recorded” stand apart in the source; their conditions may differ.

How the values were obtained:
[1] = molecular target: T1, RRF (Escherichia coli, UniProt P0A805); experiment: RRF reaction: conversion of polysomes to monosomes (sucrose gradient); format: biochemical, E. coli; conditions: for Inhibition of the RRF reaction (conversion of polysomes to monosome): dose response, expressed as percent inhibition
Procedure: The reaction mixture (275 μl) contained 72 ng/ml RRF, 0.4 μg/ml EF-G, 363 nM GTP, 10 mM Tris-Cl, pH 7.4, 8.2 mM MgSO4, […] NH4Cl, 0.3 mM DTT, […] puromycin, 1 A260 polysome of E. coli, and an increasing concentration of sd-G4, as indicated in FIG. 1. The reaction mixture is incubated for 15 min at 30° C., loaded onto a sucrose gradient (15% to 30% in buffer J (Hirashima, A., Kaji, A., Biochemistry 11: 461-471, 1972) and centrifuged at 40,000 rpm for 75 min at 4° C. The ISCO density gradient analyzer monitored sedimentation profiles of the polyribosome. The value is expressed as a percent inhibition calculated from the area of 70S and polysome on those profiles.

[2] = test system: Swiss Webster male mice; experiment: Toxicity studies in mice; format: in vivo; conditions: iv, ip
Procedure: Swiss Webster male mice weighing 20-25 grams receive intraperitoneal or intravenous injections of tetra guanylic acid, dissolved in 0.9% sodium chloride, see Table 1 for dosages.
For sd-G4 to be active as a specific inhibitor of RRF sd-G4 must be non-toxic in living organisms. Dosages (20-125 mg/kg) of sd-G4 and its related tetra nucleotides are administered to mice intraperitonially, as well as intraveniously, and neither acute nor chronic toxicity is noted, i.e., no grossly observable changes in growth activity, locomotor activity, food intake, or water intake during an observation period of 25 days. Moreover, no pathological signs are noted at autopsy (Table 1). […] Thus, sd-G4 is best choice for a lead compound in the computer based rational design of the anti RRF agents.

[3] = test system: MS2 RNA dependent protein synthesis; experiment: MS2 RNA dependent protein synthesis in S30 extract; format: biochemical, E. coli; conditions: 7 μM, 8 minute point
Procedure: The reaction mixture (30 μl) contains 12 μl S30 (Kaji, 1968), Premixture (Promega), 2.4 μg MS2 phage RNA (Boehringer Mannheim), 0.1 mM amino acids mixture minus methionine (Promega), 10.1 pmole ^35S-methionine (NEN, 0.6 Ci/μmole), 0.6 A ^260U S30 extract (Promega), and 1, 4, 7, or 10 μM sd-G4 (FIG. 3). The reaction mixture is incubated at 37° C. At various times after the onset of the reaction, hot TCA (trichloroacetic acid) insoluble counts are measured.

[4] = molecular target: E. coli RRF (Escherichia coli, UniProt P0A805); experiment: Gel retardation assay with E. coli RRF and 32P-end-labeled sd-G4; format: binding; conditions: about 2.4 μM, competed by non-labeled sd-G4, BSA negative control
Procedure: The reaction mixture for the binding of ^32P-end-labeled sd-G4 to RRF (10 μl) contains 8 mM Tris-Cl(pH 7.6), 9.7 mM MgSO4, 81 mM NH4Cl, 1.3 mM DTT, and approximately 2.4 μM of ^32P-end-labeled sd-G4. E. coli RRF, EF-G, polysome, BSA are added as indicated in FIG. 9 and competitor non-labeled sd-G4 is added at ½, 1, 2, and 4 times the concentration of the labeled sd-G4 (FIG. 9). The mixture is incubated at 30° C. for 15 min. 5% Glycerol and one-tenth volume of 25% Ficoll containing xylane cyanol and bromphenol blue is added, and the entire reaction mixture is subjected to 4% polyacrylamide gel (29:1, acrylamide/bisacrylamide) electrophoresis at 10 V/cm with constant recirculation of TBE buffer (89 mM Tris-borate, 2.5 mM EDTA, pH 8.3). The gel is dried onto Whatman 3MM paper and subject to autoradiography.

[5] = molecular target: T1, RRF; experiment: RRF reaction: conversion of polysomes to monosomes (sucrose gradient); format: biochemical, E. coli; conditions: 1× RRF (72 ng/ml) vs 2× RRF (144 ng/ml)
[6] = molecular target: T1, RRF; experiment: Release of ribosome-bound deacylated tRNA by RRF; format: biochemical; conditions: 7 μM, various amounts of E. coli polysome
Procedure: The reaction mixture (550 μl) for the RRF reaction contains 0.2 nmole RRF where indicated, 0.2 nmole EF-G, 0.37 μM GTP, 275 μM puromycin, 10 μM sd-G4 where indicated, and various amounts of E. coli polysome (see FIG. 8). The mixture is incubated for 15 min. at 30° C. The released tRNA is separated from the complex with pre-washed Microcon 100 (Millipore, 330× g, 40 min). The filter is washed once by centrifugation with 550 μl of a buffer (10 mM Tris-Cl, pH 7.6, 8.2 mM MgSO4, 80 mM NH4Cl, 0.14 mM DTT) and combined with the filtrate. Separated tRNA solution is concentrated with Microcon 30 (Millipore, 14,000× g, 15 min. twice) to a total volume of 14 μl. The concentrated tRNA is charged with 0.15 μCi of ^14C-amino acids mixture (Amersham, 52 mCi/mg) in 30 μl of the reaction mixture (50 mM Tris-Cl, pH 7.8,10 mM MgAc, 6 mM β-mercaptoethanol, 3 mM ATP, 5 mM phosphoenolpyruvate, 138 μg pyruvate kinase, 33.3 μg aminoacyl tRNA synthetases). Cold (4° C.) TCA (trichloro acetic acid) insoluble radioactivity is measured to estimate the amount of tRNA released. In this experiment, the amount of tRNA released is measured by its capacity to accept an amino acid.

[7] = test system: translation of polyuridylic acid (Poly U) into polyphenylalanine; experiment: Translation of polyuridylic acid (Poly U) into polyphenylalanine in S30 extract; format: biochemical, E. coli; conditions: as high as 10 μM
Procedure: The reaction mixture (30 μl) contains 12 μl S30, Premixture (Promega), 20 μM ^14C-phenylalanine (Amersham, 450 Ci/mole), 10 mM Mg acetate (MgAc), 0.08 μg/ml polyU (Sigma), 1 A260 unit of E. coli S30 extract (Promega), and 1, 4, 7, or 10 μM sd-G4 (FIG. 4). The reaction mixture is incubated at 37° C. At various periods after the onset of the reaction, hot TCA (trichloroacetic acid) insoluble counts are measured.

T1 sequence (P0A805 whole entry): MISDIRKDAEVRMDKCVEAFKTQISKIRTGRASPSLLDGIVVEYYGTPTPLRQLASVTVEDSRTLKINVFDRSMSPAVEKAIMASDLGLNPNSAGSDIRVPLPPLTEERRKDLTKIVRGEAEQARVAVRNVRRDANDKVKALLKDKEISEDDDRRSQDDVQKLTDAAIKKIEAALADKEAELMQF
Sequence of E. coli RRF (P0A805 whole entry): as above

tetrathymidylic acid
Inhibition of the RRF reaction (conversion of polysomes to monosome) [1]: ineffective

5′ phosphorylated sd-G4 [p sd-G4]
Visual effect ([2]; 20 mg-125 mg/kg): none

deoxyguarylic acid [d-G4, reference compound]
Visual effect ([2]; 125 mg/kg): none

tetracytidylic acid
Inhibition of the RRF reaction (conversion of polysomes to monosome) [1]: ineffective

phospo diester tetraguanylic acid [pd-G4]
Inhibition of the RRF reaction (conversion of polysomes to monosome) [1]: not effective in inhibiting RRF | Inhibition of the RRF reaction (conversion of polysomes to monosome) ([1]; listed as phosphodiester oligoG): retains the ability to inhibit RRF to some extent

phosphorothioate tetradeoxyguanylic acid [sd-G4]
Concentration that significantly inhibited the RRF reaction ([1]; 72 ng/ml RRF, 15 min at 30° C.): 5 µM | Inhibition of the RRF reaction (conversion of polysomes to monosome) [1]: inhibits the RRF reaction in a dose-dependent manner; also recorded: has inhibitory activity; also recorded: effective | Inhibition of protein synthesis (MS2 phage RNA translation) [3]: 50% | Binding to RRF (retarded electrophoretic movement) [4]: binds | Effect of excess RRF on inhibition of the RRF reaction [5]: reduced by addition of more RRF | Release of ribosome-bound deacylated tRNA by RRF [6]: does not inhibit release of tRNA | Polyphenylalanine formation (incorporation of labeled phenylalanine) [7]: does not inhibit | Visual effect ([2]; 20 mg-125 mg/kg): none

riboinosinic tetraphosphate [(RIP)4, reference compound]
Visual effect ([2]; 125 mg/kg): none

Tetraadenylic acid
Inhibition of the RRF reaction (conversion of polysomes to monosome) [1]: ineffective
